Reference: ChEMBL document CHEMBL3872274, “Synthesis and immunological evaluation of a low molecular weight saccharide with TLR-4 agonist activity” (Bioorg Med Chem, 2017)
Active and inactive are the calls of the source. No cut-off for these calls is given here.

What was measured:
[1] = molecular target: T1, Toll-like receptor 4 (Mus musculus) (UniProt Q9QUK6); experiment: Agonist activity at TLR-4 in C57BL/6 mouse peritoneal exudate macrophages assessed as increase in IL-6 production at 1 to 5 ug/ml at 24 hrs post dose by ELISA relative to (Cyclohexyl-2-phthalimido-3,4,6-tri-O-acetyl-beta-D-glucopyranosyl)-2-O-acetyl-3-O-benzoyl-4,6-O-pyruvate-beta-D-galactopyranose
T1 sequence (whole entry): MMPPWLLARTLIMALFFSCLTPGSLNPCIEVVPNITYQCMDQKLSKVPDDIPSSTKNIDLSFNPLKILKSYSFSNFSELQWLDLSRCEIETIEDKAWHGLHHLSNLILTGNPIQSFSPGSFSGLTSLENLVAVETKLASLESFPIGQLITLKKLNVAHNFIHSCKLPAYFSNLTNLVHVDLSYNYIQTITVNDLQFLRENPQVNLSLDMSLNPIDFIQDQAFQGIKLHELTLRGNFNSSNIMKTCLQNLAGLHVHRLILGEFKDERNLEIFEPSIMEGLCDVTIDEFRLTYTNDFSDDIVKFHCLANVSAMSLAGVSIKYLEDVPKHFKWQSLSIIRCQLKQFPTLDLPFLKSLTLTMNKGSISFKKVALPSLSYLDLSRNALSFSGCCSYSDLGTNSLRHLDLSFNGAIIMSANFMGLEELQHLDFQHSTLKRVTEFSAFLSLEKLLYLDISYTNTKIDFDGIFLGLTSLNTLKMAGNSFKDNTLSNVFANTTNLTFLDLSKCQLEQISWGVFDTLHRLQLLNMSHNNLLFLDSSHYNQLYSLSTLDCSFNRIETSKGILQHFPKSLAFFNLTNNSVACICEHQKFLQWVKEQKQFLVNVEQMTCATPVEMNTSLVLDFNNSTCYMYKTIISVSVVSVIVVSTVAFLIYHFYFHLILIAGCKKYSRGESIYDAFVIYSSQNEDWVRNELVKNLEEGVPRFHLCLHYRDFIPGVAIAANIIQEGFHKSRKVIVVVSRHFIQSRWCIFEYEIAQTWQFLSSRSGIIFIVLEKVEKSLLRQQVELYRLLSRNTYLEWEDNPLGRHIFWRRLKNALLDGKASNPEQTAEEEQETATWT

[2] = molecular target: Toll-like receptor 2 (Mus musculus) (UniProt Q9QUN7); experiment: Binding affinity to TLR-2 in C57BL/6 mouse peritoneal exudate macrophages assessed as cells binding to PE conjugated anti-TLR-2 monoclonal antibody at 10 ug/ml preincubated for 4 hrs followed by antibody addition by flow cytometry (reference value: 30.8%)
[3] = molecular target: T1, Toll-like receptor 4 (Mus musculus); experiment: Agonist activity at TLR-4 in mouse RAW264.7 cells assessed as increase in TNF-alpha production at 1 to 5 ug/ml measured within 2 hrs by ELISA; assay type: cell-based
[4] = Effect on adaptive immune system in mouse splenocytes assessed as polyclonal activation of T-lymphocytes; assay type: cell-based; conditions: splenocyte
[5] = molecular target: T1, Toll-like receptor 4 (Mus musculus); experiment: Binding affinity to TLR-4 in C57BL/6 mouse peritoneal exudate macrophages assessed as cells binding to PE conjugated anti-TLR-4 monoclonal antibody at 5 ug/ml preincubated for 4 hrs followed by antibody addition by flow cytometry (reference value: 50.8%)
[6] = molecular target: T1, Toll-like receptor 4 (Mus musculus); experiment: Agonist activity at TLR-4 in TLR2 deficient C57BL/6 mouse peritoneal exudate macrophages assessed as increase in TNF-alpha production at 1 to 5 ug/ml measured after 2 to 24 hrs by ELISA
[7] = molecular target: T1, Toll-like receptor 4 (Mus musculus); experiment: Binding affinity to TLR-4 in C57BL/6 mouse peritoneal exudate macrophages assessed as decrease in cells binding to PE conjugated anti-TLR-4 monoclonal antibody preincubated for 4 hrs followed by antibody addition by flow cytometry
[8] = molecular target: T1, Toll-like receptor 4 (Mus musculus); experiment: Agonist activity at TLR-4 in mouse RAW264.7 cells assessed as increase in IL-6 production at 1 to 5 ug/ml measured after 48 hrs by ELISA; assay type: cell-based
[9] = Effect on adaptive immune system in mouse splenocytes assessed as polyclonal activation of B-lymphocytes; assay type: cell-based; conditions: splenocyte
[10] = molecular target: T1, Toll-like receptor 4 (Mus musculus); experiment: Binding affinity to TLR-4 in C57BL/6 mouse peritoneal exudate macrophages assessed as cells binding to PE conjugated anti-TLR-4 monoclonal antibody at 10 ug/ml preincubated for 4 hrs followed by antibody addition by flow cytometry (reference value: 50.8%)
[11] = molecular target: T1, Toll-like receptor 4 (Mus musculus); experiment: Agonist activity at TLR-4 in C57BL/6 mouse peritoneal exudate macrophages assessed as increase in TNF-alpha production at 1 to 5 ug/ml up to 24 hrs post dose by ELISA relative to thiophenyl-2-O-acetyl-3-O-benzoyl-4,6-O-pyruvate-[…]-D-galactopyranose
[12] = molecular target: T1, Toll-like receptor 4 (Mus musculus); experiment: Binding affinity to TLR-4 in C57BL/6 mouse peritoneal exudate macrophages assessed as cells binding to PE conjugated anti-TLR-4 monoclonal antibody at 1 ug/ml preincubated for 4 hrs followed by antibody addition by flow cytometry (reference value: 50.8%)
[13] = molecular target: T1, Toll-like receptor 4 (Mus musculus); experiment: Agonist activity at TLR4 in TLR-2 deficient C57BL/6 mouse peritoneal exudate macrophages assessed as induction of IL-6 production at 1 to 5 ug/ml measured after up to 48 hrs by ELISA
[14] = molecular target: T1, Toll-like receptor 4 (Mus musculus); experiment: Agonist activity at TLR-4 in C57BL/6 mouse peritoneal exudate macrophages assessed as increase in TNF-alpha production at 1 to 5 ug/ml measured within 2 hrs by ELISA
[15] = molecular target: T1, Toll-like receptor 4 (Mus musculus); experiment: Agonist activity at TLR-4 in C57BL/6 mouse peritoneal exudate macrophages assessed as increase in IL-6 production at 1 to 5 ug/ml measured after 48 hrs by ELISA

Sequence of Toll-like receptor 2 (Mus musculus) (Q9QUN7 whole entry): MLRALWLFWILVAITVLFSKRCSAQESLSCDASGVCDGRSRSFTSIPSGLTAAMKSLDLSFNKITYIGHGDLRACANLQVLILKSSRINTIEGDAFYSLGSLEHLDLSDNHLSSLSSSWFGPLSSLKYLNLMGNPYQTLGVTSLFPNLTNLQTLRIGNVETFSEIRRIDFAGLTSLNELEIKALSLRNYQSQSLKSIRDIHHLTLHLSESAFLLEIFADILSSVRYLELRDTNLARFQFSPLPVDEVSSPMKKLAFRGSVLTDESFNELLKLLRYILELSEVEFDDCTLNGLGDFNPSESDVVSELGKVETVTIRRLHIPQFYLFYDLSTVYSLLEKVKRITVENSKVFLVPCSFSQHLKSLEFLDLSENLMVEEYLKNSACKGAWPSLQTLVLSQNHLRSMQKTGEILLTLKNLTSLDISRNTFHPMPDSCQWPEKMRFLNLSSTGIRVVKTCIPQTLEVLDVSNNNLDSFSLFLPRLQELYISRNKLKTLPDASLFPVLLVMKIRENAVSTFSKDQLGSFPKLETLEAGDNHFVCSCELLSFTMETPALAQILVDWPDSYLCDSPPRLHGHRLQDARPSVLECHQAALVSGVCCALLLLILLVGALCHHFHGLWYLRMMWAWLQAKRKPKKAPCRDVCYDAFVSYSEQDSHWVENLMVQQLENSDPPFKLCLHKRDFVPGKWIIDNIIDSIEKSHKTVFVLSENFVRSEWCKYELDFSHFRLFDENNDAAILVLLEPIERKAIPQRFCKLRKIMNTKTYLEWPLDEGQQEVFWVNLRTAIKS

Activity [1] [%] | Activity [2] [%] | Activity [3] | Activity [5] [%] | Activity [6] | Activity [7] | Activity [8] | Activity [10] [%] | Activity [11] [%] | Activity [12] [%] | Activity [13] | Activity [14] | Activity [15] | Structure (SMILES) | Activity [4] | Activity [9]
50 |  |  |  |  |  |  |  |  |  |  |  |  | COC(=O)C1(C)OC[C@H]2O[C@@H](Sc3ccccc3)[C@H](OC(C)=O)[C@@H](OC(=O)c3ccccc3)[C@H]2O1 (stereo partly specified) |  | 
50 |  |  |  |  |  |  |  |  |  |  |  |  | CCS[C@@H]1O[C@H](COC(C)=O)[C@@H](OC(C)=O)[C@H](OC(C)=O)[C@H]1N1C(=O)c2ccccc2C1=O |  | 
 | 33.4 | Active | 37.3 | Active | Dose-dependent effect | Active | 24.3 | 50 | 45.2 | Active | Active | Active | COC(=O)C1(C)OC[C@H]2O[C@@H](OC3CCC(O[C@@H]4O[C@H](COC(C)=O)[C@@H](OC(C)=O)[C@H](OC(C)=O)[C@H]4N4C(=O)c5ccccc5C4=O)CC3)[C@H](OC(C)=O)[C@@H](OC(=O)c3ccccc3)[C@H]2O1 (stereo partly specified) | Non-Toxic | Non-Toxic
